# In patent publication US6245758A, “Methods of use for peroxynitrite decomposition catalysts, pharmaceutical compositions therefor” (priority 1996, dated 2001):
# Where two headings read alike, the source gives them in different places.
# Legend:
# [1] = test system: CuZnSOD; assay: Inactivation of CuZnSOD by peroxynitrite (stopped flow superoxide dismutase activity)
# Protocol: Stock solutions of bovine liver CuZnSOD (DDI Pharmaceuticals Inc., Mountain View CA) were prepared by dissolving -1.0 mg of enzyme in 10 mL of 50 mM potassium phosphate buffer at a pH=7.4. […] All kobs were the average of triplicate runs using a stopped flow spectrophotometer manufactured by Kinetic Instruments Inc. (Ann Arbor, Mich.) and was interfaced to a MAC IICX personal computer.
# Inactivation of CuZn SOD by peroxynitrite.
# Inactivation of peroxynitrite was performed by aloquating 1.0 mL of stock CuZn SOD solution into 50 mM potassium phosphate buffer pH=7.4 such that a final assay volume of 10 mL is achieved after addition of peroxynitrite and EDTA solutions. To these assay solution was added various amounts of peroxynitrite (25 mM stock solution) such that the final concentration of peroxynitrite in the assay varied from 0, 25, 50, 75 and 100 uM. After the addition of peroxynitrite, 100 uL of a 2.5 mM stock EDTA solution was added to each assay solution such that the final concentration of EDTA was 250 uM. Each solution was then assayed by stopped flow analysis for superoxide dismutase activity.
# [2] = Stopped-flow kinetic analysis of catalytic decomposition of peroxynitrite by metal complexes; settings: pH = 7.4, 22° C.
# Protocol: To screen metal complexes for peroxynitrite decomposition catalytic activity of the present invention, peroxynitrite is prepared and isolated as its sodium salt by the reaction of acidic hydrogen peroxide with sodium nitrite followed by rapid quenching with NaOH as set out by Halfpenny and Robinson, in J. Chem. So., 1952, 928-938. Peroxynitrite has an absorbance maximum at 302 nm with an extinction coefficient of 1670 M^-1 cm^-1. Therefore, it is possible to directly observe the decomposition of peroxynitrite by stop-flow spectrophotometric analysis by monitoring the decomposition of the absorbance at 302 nm. That is, such observation of the decomposition of peroxynitrite at a rate accelerated over the natural decomposition rate with the addition of the metal complex identifies a compound of the present invention.
# Kinetic measurements were made on an OLIS Rapid Scanning Stopped-Flow Spectrometer (On-Line Instrument Systems Inc., Bogart, Ga.)) using the OLISRSM-1000 Operating system for data acquisition and manipulation.
# Thus, in a typical experiment the natural background decomposition rate of sodium peroxynitrite was determined as follows. A 24 mM stock solution of sodium peroxynitrite in 50 mM NaOH is load into the small volume syringe and 100 mM potassium phosphate pH=7.4 is charged into the large volume syringe of the stopped-flow spectrophotometer. All stopped -flow measurements were made at 22 ° C. Injection of the solutions into the sample compartment results in ~25 fold dilution of the stock sodium peroxynitrite. […] To test for catalytic peroxynitrite decomposition activity, the metal complex was dissolved in 100 mM potassium phosphate buffer pH=7.4 and loaded into the large syringe and the decomposition of peroxynitrite was monitored as described above. The catalytic rate constant (kcat M-1 sec^-1) for the complexes tested was determined by varying the complex concentration and plotting kobs vs [complex] Table 1. The kobs were obtained from averages of three stopped flow analysis at each catalyst concentration.
# [3] = test system: RAW 264.7 cells; assay: Cell protection assay, Alamar Blue viability after peroxynitrite challenge; format: cell-based, murine
# Protocol: FIG. 8: Comparison of Ni and Fe Catalyst Protection of RAW Cells from PN(peroxynitrite)-mediated Injury. RAW 264.7 cells were plated at approximately 2×10^5 per well of a 96-well plate. […] Each condition represents the mean of 4 wells ±sem.
# FIG. 9: Protection from PN-mediated RAW Cell Injury by Fe Catalysts. Cells were treated with 500 micromolar PN in the presence or the absence of the following catalysts: FeTMPyP, FeTMPS, FeTPPS. Cell viability was monitored as described in the text and figure legends 1, 2 and 3. Values represent the mean of 4 determinations ±sem.
# (§1) Protocol for Cell Protection Assays using Peroxynitrite Decomposition Catalysts: A cell viability assay was established to rapidly assess the efficacy of peroxynitrite(PN) catalysts in protecting cells from PN25 mediated injury and death. The peroxynitrite challenge consisted of a pulse of synthetic PN added exogenously to cells. In order to better assess the efficacy of PN catalysts in protecting cells from PN-mediated damage, a quantity of peroxynitrite(in 50 mM NaOH) determined to cause maximal injury(100%) was added as an exogenous pulse to each well of cells in the presence or absence of catalyst. The NaOH vehicle was not toxic by itself.
# (§2) Cells(RAW 264.7 cells or P815 mastocytoma cells; American Type Culture Collection, Rockville, Md.) were plated to confluence on 96-well tissue culture plates. Each well is washed twice with Dulbecco's phosphate buffered saline(DPBS; GIBCO BRL, Grand Island, N.Y.) to remove protein and other serum components which might react with the exogenous peroxynitrite. To each well is then added 200 μl of DPBS. PN is next placed into separate wells at increasing concentrations and cell viability monitored. The dose at which maximal cell death is attained is then utilized for the catalyst protection assessment.
# Phosphate-buffered saline (200 uL) containing increasing concentrations of catalyst is next placed into individual wells of cells. The maximal dose of PN is subsequently administered to all wells of cells. After 15 minutes, the medium is removed from each well and the cells are either allowed to recover overnight in Earles minimum essential medium without phenol red and supplemented with 10% fetal bovine serum or alternatively the plate of cells is assayed that day for mitochondrial integrity using the Alamar Blue viability assay(Alamar Biosciences, Inc.; Sacramento, Calif.). In either case, cells are incubated at 37° C. in 5% CO2.
# Cell injury is measured as follows. Briefly, 10% Alamar Blue(v/v) in Earles MEM with 10% FBS is added to each well of cells for 1-2h. Cell metabolism of the dye generates a fluorescent product which is directly related to the number of viable cells. Moreover, the production of the fluorescent metabolite is linear for over 2 h. The amount of fluorescent product in 100 μl of conditioned medium from each well of cells is then measured with an IDEXX fluorescent plate reader (gain setting of 1%) at an emission wavelength of 575 nm after exciting at 545 nm. Viability is either given as absolute fluorescent units or as a percent of the value obtained for untreated cells(100%).
# [4] = test system: carrageenan-induced paw edema; assay: Carrageenan-induced paw edema; format: in vivo, rat; settings: 30 mg/kg i.v.
# Description: Carrageenan-induced paw edema. The effects of peroxynitrite catalysts in vivo were initially tested on the carrageenan-induced paw edema. The choice of using this in vivo model of inflammation was based on the knowledge that 1) the inflammatory response is blocked by NOS inhibitors and 2) by superoxide dismutase (SOD). This indicates the participation of both NO and of O2-. Male Sprague Dawley rats were purchased from Harlan Sprague-Dawley (Indianapolis, Ind.). Male Sprague Dawley rats (175-200 g) received a subplantar injection in the right hind paw of carrageenan (0.1 ml of a 1% suspension in 0.85% saline). Paw volume was measured by a plethysmometer immediately before the injection of carrageenan and then at hourly intervals from 1 to 6 h. Edema was expressed as the increase in paw volume (in ml) measured after carrageenan injection compared to the pre-injection value for individual animals.
# [5] = test system: rat jejunum; assay: Intestinal vascular permeability (radiolabelled albumin leakage) after endotoxin (LPS); format: in vivo; settings: 30 mg/kg, i.v, 3 h after LPS; determined 1 h later
# Protocol: FIG. 10 . Effects of FeTMPS, FeTMPyP or ZnTMPyP (30 mg/kg, i.v bolus) administered 3 h after challenge with E. coli lipopolysaccharide (LPS, 3 mg/kg, i.v bolus) on the increase in leakage of radio-labelled albumin (plasma extravasation, μl/g tissue) observed 1 h later (e.g 4 h after LPS challenge) in the rat jejunum. Results are shown as mean±s.e.m of 4-8 rats.
# Intestinal vascular permeability was determined as the leakage into the jejunal tissue of [^125 I]-labelled bovine serum albumin ([^125 ]-BSA) administered intravenously (0.5 ml; 0.5 μCi) together with either LPS (3 mg/kg, serotype O111:B4) or isotonic saline. At 4 h after LPS administration, segments of jejunal tissue were ligated and removed. The intestinal tissues were rapidly washed, blotted dry and weighed. Blood (0.5 ml) was collected into tubes containing tri-sodium citrate (0.318% final concentration) and plasma prepared by centrifugation (10,000 g×10 min). The {^125 I]-BSA content in segments of whole tissue and in aliquots of plasma (100 μl) was determined in a gamma counter. The total content of plasma in the intestinal tissues was expressed as μl/g tissue. Changes in intravascular volume in the intestinal tissue was determined in an additional group of rats by administering ([^125 I]-BSA) intravenously 2 min before removal of the jejunum. The tissue and plasma content of radiolabel was determined and intravascular volume expressed as μl/g tissue. This value was substracted from that obtained in the plasma leakage studies to obtain a measure of the intestinal plasma albumin leakage. After LPS administration (4 h), there was a significant (P<0.01) increase in the plasma leakage (from 77±10 to 224±18 μl/g tissue, n=8).
# [6] = test system: human dermal microvascular endothelial cells (HDME cells); assay: Endothelial cell injury assay (51Cr release), authentic peroxynitrite; format: cell-based; settings: 45 min, peroxynitrite 0-800 uM
# Protocol: FIG. 5: Peroxynitrite-mediated human microvascular endothelial cell injury. Authentic peroxynitrite was overlaid directly onto to ^51 Cr-labeled HMDE cells grown in 96-well cell culture plates. After 45 min the amount of specific cell injury was determined and correlated to peroxynitrite concentration by least squares regression line. Values represent the average of three replicates +/-SEM.
# FIG. 6: Peroxynitrite catalysts, Fe(TMPyP) (triangle) and Ni(II)dienoN4)PF6 (circle) were added to HDME cells in the cell injury assay immediately before the addition of authentic peroxynitrite. After 45 min, the amount of specific cell injury was assessed by the amount of radiolabel released into the medium. Values represent the average of three replicas +/-SEM. *p<0.01 vs. 0 uM control by Dunnett's t Test.
# […]: Human recombinant tumor necrosis factor-alpha (TNF-a) was obtained from Genzyme Corporation, Cambridge, MA. Human recombinant complement C5a and L-arginine (L-arg) was purchased from Sigma Chemical Company, St. Louis, Mo. Authentic peroxynitrite in 50 mM NaOH was prepared as described above. […]
# Endothelial Cell Injury Assays: The cytotoxic effects of stimulated neutrophils or peroxynitrite on endothelial cells was determined using a ^51 Cr-release assay as described by Moldow (Moldow et. al. Methods Enzymol., 105, 378-385, [1984]). […]
# [7] = test system: RAW and P815 cells; assay: Comparison of increasing PN doses on RAW and P815 cells; format: cell-based, murine; settings: data not shown
# Protocol: as §1
# as §2, with “To each well is then added 200 μl of DPBS.” left out, “The dose at which maximal cell death is attained is then utilized for the catalyst protection assessment.” left out
# Cell injury is measured as follows. […] The amount of fluorescent product in 100 μl of conditioned medium from each well of cells is then measured with an IDEXX fluorescent plate reader (gain setting of 1%) at an emission wavelength of 575 nm after exciting at 545 nm. […]
# [8] = Natural background decomposition of peroxynitrite; format: physicochemical; settings: 22 ° C, 100 mM potassium phosphate pH=7.4
# Protocol: Thus, in a typical experiment the natural background decomposition rate of sodium peroxynitrite was determined as follows. A 24 mM stock solution of sodium peroxynitrite in 50 mM NaOH is load into the small volume syringe and 100 mM potassium phosphate pH=7.4 is charged into the large volume syringe of the stopped-flow spectrophotometer. All stopped -flow measurements were made at 22 ° C. Injection of the solutions into the sample compartment results in ~25 fold dilution of the stock sodium peroxynitrite. […] To test for catalytic peroxynitrite decomposition activity, the metal complex was dissolved in 100 mM potassium phosphate buffer pH=7.4 and loaded into the large syringe and the decomposition of peroxynitrite was monitored as described above. The catalytic rate constant (kcat M-1 sec^-1) for the complexes tested was determined by varying the complex concentration and plotting kobs vs [complex] […] The kobs were obtained from averages of three stopped flow analysis at each catalyst concentration.
# [9] = Beckman et al. 1990, cited from earlier work
structure (smiles),measurement,setting,value
O=C(O)CN(CCN(CC(=O)O)CC(=O)O)CC(=O)O [EDTA],CuZnSOD activity in control reaction,[1]; 250 uM EDTA alone,no decrease in CuZnSOD activity
"C[n+]1ccc(-c2c3nc(c(-c4cc[n+](C)cc4)c4ccc([nH]4)c(-c4cc[n+](C)cc4)c4nc(c(-c5cc[n+](C)cc5)c5ccc2[nH]5)C=C4)C=C3)cc1.[Zn+2] [ZnTMPyP, reference compound]","kcat, catalytic rate constant for the decomposition of sodium peroxynitrite",[2],Inactive
same,protection of cells from PN-mediated injury,"[3]; PN 500 micromolar, RAW cells, FIG. 9 (H2 TMPyP and ZnTMPyP: data not shown)",relatively ineffective
same,inhibition of edema formation,[4],failed to inhibit edema formation
same,radiolabelled albumin leakage,[5],did not inhibit radiolabelled albumin leakage
"O=NOO [peroxynitrite, sodium peroxynitrite]",endothelial cell injury by peroxynitrite,[6],dose dependent increase in cell injury
same,decrease in cell viability caused by PN,"[3]; RAW 264.7, PN dose of FIG. 8 experiment",50%
same,differential susceptibility of RAW and P815 cells to peroxynitrite-mediated injury,[7],no evidence for a differential susceptibility to peroxynitrite-mediated injury
same,kobs of decomposition of sodium peroxynitrite,[8],1.39×10^-1±0.15 sec^-1
same,t1/2 of decomposition of sodium peroxynitrite,[8],5.2 see
same,t1/2 of decomposition of sodium peroxynitrite,"[9]; 37° C, pH=7.4",1.9 s
same,observed rate for the decomposition of peroxynitrite,"[9]; pH 7.4, 37° C",3.6×10^-1 sec-i
same,inactivation of CuZnSOD,[1]; peroxynitrite 0-100 uM,inactivates CuZnSOD enzyme in a concentration dependant manner
